Series [1] addresses T1, human VR1 (Homo sapiens, UniProt Q8NER1).
T1 construct: expressed in transfected cells
The experiment in a line: capsaicin-induced Ca2+ influx in the human VR1-transfected CHO cell line (Assay 1). The format is cell-based. Conditions: 10 nM capsaicin, human VR1-CHOluc9aeq cells, read-out: activity class. The source says: [Measurement of capsaicin-induced Ca^2+ influx in the human VR1-transfected CHO cell line] (Assay 1)
• (1) Establishment of the Human VR1-CHOluc9aeq Cell Line • Human vanilloid receptor (hVR1) cDNA was cloned from libraries of axotomized dorsal root ganglia (WO 00/29577). The cloned hVR1 cDNA was constructed with pcDNA3 vector and transfected into a CHOluc9aeq cell line. The cell line contains aequorin and CRE-luciferase reporter genes as read-out signals. The transfectants were cloned by limiting dilution in selection medium (DMEM/F12 medium (Gibco BRL) supplemented with 10% FCS, 1.4 mM Sodium pyruvate, 20 mM HEPES, 0.15% Sodium bicarbonate, 100 U/ml penicillin, 100 μg/ml streptomycin, 2 mM glutamine, non-essential amino acids and 2 mg/ml G418). Ca^2+ influx was examined in the capsaicin-stimulated clones. A high responder clone was selected and used for further experiments in the project. The human VR1-CHOluc9aeq cells were maintained in the selection medium and passaged every 3-4 days at 1-2.5×10^5 cells/flask ([…]). • (2) Measurement of Ca^2+ Influx Using FDSS-3000 • Human VR1-CHOluc9aeq cells were suspended in a culture medium which is the same as the selection medium except for G418 and seeded at a density of 1,000 cells per well into 384-well plates (black walled clear-base/Nalge Nunc International). Following the culture for 48 hrs the medium was changed to 2 μM Fluo-3 AM (Molecular Probes) and 0.02% Puronic F-127 in assay buffer (Hank's balanced salt solution (HBSS), 17 mM HEPES (pH7.4), 1 mM Probenecid, 0.1% BSA) and the cells were incubated for 60 min at. 25° C. After washing twice with assay buffer the cells were incubated with a test compound or vehicle for 20 min at 25° C. Mobilization of cytoplasmic Ca^2+ was measured by FDSS-3000 (λex=488 nm, λem=540 nm/Hamamatsu Photonics) for 60 sec after the stimulation with 10 nM capsaicin. Integral R was calculated and compared with controls. [Measurement of the Capsaicin-Induced Ca^2+ Influx in Primary Cultured Rat Dorsal Root Ganglia Neurons] (Assay 2) • (1) Preparation of Rat Dorsal Root Ganglia Neurons • New born Wister rats (5-11 days) were sacrificed and dorsal root ganglia (DRG) was removed. DRG was incubated with 0.1% trypsin (Gibco BRL) in PBS(−) (Gibco BRL) for 30 min at 37° C., then a half volume of fetal calf serum (FCS) was added and the cells were spun down. The DRG neuron cells were resuspended in Ham F12/5% FCS/5% horse serum (Gibco BRL) and dispersed by repeated pipetting and passing through 70 μm mesh Falcon). The culture plate was incubated for 3 hours at 37° C. to remove contaminating Schwann cells. Non-adherent cells were recovered and further cultured in laminin-coated 384 well plates (Nunc) at 1×10^4 cells/50 μl/well for 2 days in the presence of 50 ng/ml recombinant rat NGF (Sigma) and 50 μM 5-fluorodeoxyuridine (Sigma). • (2) Ca^2+ Mobilization Assay • DRG neuron cells were washed twice with HBSS supplemented with 17 mM HEPES (pH 7.4) and 0.1% BSA. After incubating with 2 μM fluo-3AM (Molecular Probe), 0.02% PF127 (Gibco BRL) and 1 mM probenecid (Sigma) for 40 min at 37° C., cells were washed 3 times. The cells were incubated with VR1 antagonists or vehicle (dimethylsulphoxide) and then with 1 μM capsaicin in FDSS-6000 (λex=480 nm, λem=520 nm/Hamamatsu Photonics). The fluorescence changes at 480 nm were monitored for 2.5 min. Integral R was calculated and compared with controls. [Organ Bath Assay to Measure the Capsaicin-Induced Bladder Contraction] (Assay 3)
The data corresponds to the compounds as yielded by solid phase synthesis and thus to levels of purity of about 40 to 90%. For practical reasons, the compounds are grouped in four classes of activity as follows: IC50=A(<or=)0.1 μM<B(<or=)0.5 μM<C(<or=)1 μM<D

Read-outs that look alike come from different tables or passages of the source.

Melting point and IC50 data for 48 molecules are collected here from patent US7612113B2, “Hydroxy tetrahydro-naphthalenylurea derivatives” (Xention Limited, priority 2002, dated 2009).

T1 sequence (Q8NER1 whole entry): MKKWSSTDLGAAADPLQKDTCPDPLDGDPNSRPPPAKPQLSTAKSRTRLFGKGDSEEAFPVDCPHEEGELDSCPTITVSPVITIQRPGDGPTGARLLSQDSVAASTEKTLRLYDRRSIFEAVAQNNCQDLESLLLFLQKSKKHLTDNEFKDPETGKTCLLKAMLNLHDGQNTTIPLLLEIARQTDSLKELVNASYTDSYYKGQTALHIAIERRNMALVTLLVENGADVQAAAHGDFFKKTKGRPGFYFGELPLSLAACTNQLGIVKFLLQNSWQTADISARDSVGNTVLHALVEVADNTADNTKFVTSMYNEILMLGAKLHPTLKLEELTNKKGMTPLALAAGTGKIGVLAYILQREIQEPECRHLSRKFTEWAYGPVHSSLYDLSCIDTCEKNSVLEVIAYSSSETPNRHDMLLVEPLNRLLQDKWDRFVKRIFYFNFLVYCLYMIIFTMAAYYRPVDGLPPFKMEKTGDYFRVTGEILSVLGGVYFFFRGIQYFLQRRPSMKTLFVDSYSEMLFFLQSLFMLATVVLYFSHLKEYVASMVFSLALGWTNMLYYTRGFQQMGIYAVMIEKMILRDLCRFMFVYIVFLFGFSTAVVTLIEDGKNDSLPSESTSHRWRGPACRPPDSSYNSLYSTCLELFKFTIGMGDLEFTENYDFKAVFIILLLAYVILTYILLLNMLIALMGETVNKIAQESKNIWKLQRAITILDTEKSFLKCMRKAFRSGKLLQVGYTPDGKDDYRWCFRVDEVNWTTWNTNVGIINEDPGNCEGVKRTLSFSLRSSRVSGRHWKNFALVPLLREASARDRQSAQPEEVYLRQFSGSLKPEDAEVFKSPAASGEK

A word on the melting point: it is the temperature, or range, at which the solid turns liquid. In turn, `O=C(Nc1ccc(Cl)c(C(F)(F)F)c1)Nc1cccc2c1CC(O)CC2` (centres unmarked) [Example 1-1, N-[4-chloro-3-(trifluoromethyl)phenyl]-N′-(7-hydroxy-5,6,7,8-tetrahydro-1-naphthalenyl)urea] had a melting point of 227 to 228 °C. `O=C(Nc1ccccc1Cl)Nc1cccc2c1CC(O)CC2` (centres unmarked) [Example 2-2] had a melting point of 197 to 199 °C. Besides, in series [1] (Table 1), the IC50 fell in the range of 100 to 500 nM.

The molecule `O=C(Nc1cccc(Cl)c1)Nc1cccc2c1CC(O)CC2` (centres unmarked) [Example 2-3] yielded a melting point of 216 to 218 °C. The IC50 in series [1] (Table 1) is less than 100 nM.

On to `O=C(Nc1ccc(Cl)cc1)Nc1cccc2c1CC(O)CC2` (centres unmarked) [Example 2-4], for which the melting point was 229 to 231 °C. For the same molecule, the IC50 in series [1] (Table 1) is less than 100 nM.

Molecule `COc1cccc(NC(=O)Nc2cccc3c2CC(O)CC3)c1` (centres unmarked) [Example 2-5] returned a melting point of 187 to 189 °C. For the same molecule, the IC50 in series [1] (Table 1) lay in the range of 100 to 500 nM. Take `COc1ccc(NC(=O)Nc2cccc3c2CC(O)CC3)cc1` (centres unmarked) [Example 2-6]: the melting point lay in the range of 213 to 215 °C. In addition, the IC50 in series [1] (Table 1) is greater than 1000 nM. In turn, `O=C(Nc1ccccc1C(F)(F)F)Nc1cccc2c1CC(O)CC2` (centres unmarked) [Example 2-7] came in with a melting point of 217 to 219 °C. Besides, in series [1] (Table 1), the IC50 lay in the range of 500 to 1000 nM. As to `O=C(Nc1cccc(C(F)(F)F)c1)Nc1cccc2c1CC(O)CC2` (centres unmarked) [Example 2-8], the melting point fell in the range of 227 to 228 °C. In addition, the IC50 in series [1] (Table 1) was less than 100 nM. As to `O=C(Nc1ccc(C(F)(F)F)cc1)Nc1cccc2c1CC(O)CC2` (centres unmarked) [Example 2-9], the melting point was in the range of 222 to 224 °C. In addition, the IC50 in series [1] (Table 1) was less than 100 nM.

In turn, `CCOC(=O)c1ccccc1NC(=O)Nc1cccc2c1CC(O)CC2` (centres unmarked) [Example 2-10] registered a melting point of 178 to 180 °C. Besides, the IC50 in series [1] (Table 1) is greater than 1000 nM.

Molecule `CCOC(=O)c1cccc(NC(=O)Nc2cccc3c2CC(O)CC3)c1` (centres unmarked) [Example 2-11] had a melting point of 176 to 178 °C. For the same molecule, in series [1] (Table 1), the IC50 was less than 100 nM. In the same order, the values of `CCOC(=O)c1ccc(NC(=O)Nc2cccc3c2CC(O)CC3)cc1` (centres unmarked) [Example 2-12] are 204 to 206 °C and less than 100 nM. The corresponding values for `O=C(Nc1cccc2c1CC(O)CC2)Nc1cccc2ccccc12` (centres unmarked) [Example 2-13] are 250 to 252 °C and less than 100 nM. Consider `O=C(Nc1ccc2ccccc2c1)Nc1cccc2c1CC(O)CC2` (centres unmarked) [Example 2-14], for which the melting point is 212 to 214 °C. Further, the IC50 in series [1] (Table 1) is less than 100 nM.

For the molecule `O=C(Nc1ccc(F)cc1)Nc1cccc2c1CC(O)CC2` (centres unmarked) [Example 2-15], the melting point lay in the range of 214 to 216 °C. The IC50 in series [1] (Table 1) was in the range of 100 to 500 nM.

In the case of `O=C(Nc1ccc(Br)cc1)Nc1cccc2c1CC(O)CC2` (centres unmarked) [Example 2-16], the melting point fell in the range of 237 to 239 °C. Also, in series [1] (Table 1), the IC50 is less than 100 nM.

In the case of `O=C(Nc1ccc(Cl)c(Cl)c1)Nc1cccc2c1CC(O)CC2` (centres unmarked) [Example 2-17], the melting point lay within 234 to 235 °C. For the same molecule, in series [1] (Table 1), the IC50 is less than 100 nM. In the same order, the values of `Cc1cccc(NC(=O)Nc2cccc3c2CC(O)CC3)c1` (centres unmarked) [Example 2-18] are 198 to 200 °C and 100 to 500 nM. For `CC(C)c1ccc(NC(=O)Nc2cccc3c2CC(O)CC3)cc1` (centres unmarked) [Example 2-19], the melting point lay within 186 to 188 °C. Besides, in series [1] (Table 1), the IC50 was less than 100 nM. As to `O=C(Nc1ccc(Oc2ccccc2)cc1)Nc1cccc2c1CC(O)CC2` (centres unmarked) [Example 2-20], the melting point was 188 to 190 °C. Besides, the IC50 in series [1] (Table 1) was less than 100 nM. The molecule `CN(C)c1ccc(NC(=O)Nc2cccc3c2CC(O)CC3)cc1` (centres unmarked) [Example 2-21] registered a melting point of 206 to 207 °C. Further, the IC50 in series [1] (Table 1) is greater than 1000 nM. In the same order, the values of `O=C(NCc1ccccc1)Nc1cccc2c1CC(O)CC2` (centres unmarked) [Example 2-22] are 198 to 200 °C and 100 to 500 nM. In the case of `Cc1ccccc1CNC(=O)Nc1cccc2c1CC(O)CC2` (centres unmarked) [Example 2-23], the melting point was in the range of 224 to 226 °C. Also, the IC50 in series [1] (Table 1) lay in the range of 100 to 500 nM.

`Cc1cccc(CNC(=O)Nc2cccc3c2CC(O)CC3)c1` (centres unmarked) [Example 2-24] gave a melting point of 194 to 196 °C. Moreover, the IC50 in series [1] (Table 1) was 100 to 500 nM.

Turning to `Cc1ccc(CNC(=O)Nc2cccc3c2CC(O)CC3)cc1` (centres unmarked) [Example 2-26], the melting point was 230 to 232 °C. The IC50 in series [1] (Table 1) is less than 100 nM. `O=C(NCc1ccccc1F)Nc1cccc2c1CC(O)CC2` (centres unmarked) [Example 2-27] displayed a melting point of 184 to 187 °C. Moreover, the IC50 in series [1] (Table 1) lay in the range of 100 to 500 nM. The corresponding values for `O=C(NCc1cccc(F)c1)Nc1cccc2c1CC(O)CC2` (centres unmarked) [Example 2-28] are 193 to 194 °C and 100 to 500 nM.

`O=C(NCc1ccc(F)cc1)Nc1cccc2c1CC(O)CC2` (centres unmarked) [Example 2-29] came in with a melting point of 218 to 221 °C. Further, the IC50 in series [1] (Table 1) is less than 100 nM. As to `O=C(NCc1ccccc1Cl)Nc1cccc2c1CC(O)CC2` (centres unmarked) [Example 2-30], the melting point fell in the range of 213 to 215 °C. For the same molecule, the IC50 in series [1] (Table 1) fell in the range of 100 to 500 nM. `COc1ccc(CNC(=O)Nc2cccc3c2CC(O)CC3)cc1` (centres unmarked) [Example 2-31] registered a melting point of 209 to 211 °C. Besides, the IC50 in series [1] (Table 1) lay in the range of 100 to 500 nM. `O=C(NCCc1ccc(Cl)cc1)Nc1cccc2c1C[C@@H](O)CC2` [Example 4-54]: the IC50 in series [1] (Table 2) is less than 100 nM.

Regarding `O=C(Nc1ccccc1F)Nc1cccc2c1CC(O)CC2` (centres unmarked) [Example 5-2], the IC50 in series [1] (Table 3) was 500 to 1000 nM. For `O=C(Nc1cccc(Br)c1)Nc1cccc2c1CC(O)CC2` (centres unmarked) [Example 5-5], the IC50 in series [1] (Table 3) is less than 100 nM.

For `Cc1ccc(NC(=O)Nc2cccc3c2CC(O)CC3)cc1` (centres unmarked) [Example 5-7], the IC50 in series [1] (Table 3) lay in the range of 100 to 500 nM. Regarding `CC(C)c1cccc(NC(=O)Nc2cccc3c2CC(O)CC3)c1` (centres unmarked) [Example 5-8], the IC50 in series [1] (Table 3) was less than 100 nM. For the molecule `CC(C)(C)c1ccc(NC(=O)Nc2cccc3c2CC(O)CC3)cc1` (centres unmarked) [Example 5-9], the IC50 in series [1] (Table 3) is less than 100 nM.

`COc1cc(NC(=O)Nc2cccc3c2CC(O)CC3)cc(C(F)(F)F)c1` (centres unmarked) [Example 5-12]: in series [1] (Table 3), the IC50 was less than 100 nM. Turning to `CCOc1ccc(NC(=O)Nc2cccc3c2CC(O)CC3)cc1` (centres unmarked) [Example 5-14], the IC50 in series [1] (Table 3) is less than 100 nM. Consider `COc1ccc(NC(=O)Nc2cccc3c2CC(O)CC3)cc1O` (centres unmarked) [Example 5-15], for which, in series [1] (Table 3), the IC50 was 500 to 1000 nM. Still for that read-out and setting: under `CSc1ccc(NC(=O)Nc2cccc3c2CC(O)CC3)cc1` (centres unmarked) [Example 5-16] stands 100 to 500 nM; under `COc1ccc(NC(=O)Nc2cccc3c2CC(O)CC3)cc1F` (centres unmarked) [Example 5-17], less than 100 nM; under `COc1ccc(NC(=O)Nc2cccc3c2CC(O)CC3)cc1OC` (centres unmarked) [Example 5-18], 100 to 500 nM. Same read-out and setting: under `COc1ccc(NC(=O)Nc2cccc3c2CC(O)CC3)cc1Cl` (centres unmarked) [Example 5-19] stands less than 100 nM; under `O=C(Nc1ccc(O)cc1)Nc1cccc2c1CC(O)CC2` (centres unmarked) [Example 5-20], 500 to 1000 nM; under `Cc1cc(C)cc(NC(=O)Nc2cccc3c2CC(O)CC3)c1` (centres unmarked) [Example 5-21], less than 100 nM. For the molecule `Cc1ccc(NC(=O)Nc2cccc3c2CC(O)CC3)cc1C` (centres unmarked) [Example 5-22], the IC50 in series [1] (Table 3) was less than 100 nM. For the molecule `CCc1cccc(NC(=O)Nc2cccc3c2CC(O)CC3)c1` (centres unmarked) [Example 5-23], in series [1] (Table 3), the IC50 is less than 100 nM. In the case of `Cc1cc(NC(=O)Nc2cccc3c2CC(O)CC3)ccc1F` (centres unmarked) [Example 5-24], the IC50 in series [1] (Table 3) was less than 100 nM.
